Data on 17 molecules can be found in patent US7176199B2, “Aryl-substituted alicyclic compound and medical composition comprising the same” (Dainippon Pharmaceutical Co., Ltd., priority 2001, dated 2007).

Where only a bound is given, the exact number is not on record here.

The target of one experiment is αvβ3 integrin (Homo sapiens, UniProt P05106+P06756). The experiment is described as follows: Assay for the inhibition of αvβ3 integrin binding (vitronectin as ligand). The arrangement: purchased Chemicon International, Inc., USA. The note with it: inhibition of specific binding of biotinylated human vitronectin to immobilized αvβ3 integrin. On the procedure:
Experiment 1: Assay for the Inhibition of αvβ3 integrin binding
This experiment was carried out based on the method described in […].
Purified human αvβ3 integrin (Chemicon International, Inc., USA) was adjusted to a concentration of 1 μg/ml with TBS^++ [20 mM Tris-HCl (pH 7.4), 150 mM NaCl, 1 mM CaCl2, 1 mM MgCl2], and the diluted solution was added to plates (Labsystems, Finland) at 50 μl/well. The plate was left at 4° C. overnight for immobilization of the αvβ3 integrin. All subsequent steps were done at 25° C., and the procedure for each well was described hereafter.
The solution was discarded, and then 200 μl of TBS^++ containing 1% BSA (Wako Pure Chemical Industries, Ltd., Japan) was added to the well and left for one hour for blocking. The well was washed with a wash solution (TBS^++ containing 0.01% Tween 20) 4 times, and 50 μl of a reaction solution (TBS^++ containing 0.1% BSA and 0.01% Tween 20) was added to the well. Subsequently, 25 μl of a test compound solution adjusted to each concentration with the reaction solution was added, and then mixed with 25 μl of biotinylated (Amersham Pharmacia Biotech, UK) human vitronectin (Gibco BRL, USA) adjusted to 0.4 μg/ml with the reaction solution. The mixture was reacted for 2 hours. After washing 4 times with the wash solution, 100 μl of peroxidase-labeled streptoavidin (Amersham Pharmacia Biotech, UK) diluted 1:500 with the reaction solution was added to the well. Following 30 minutes reaction, the well was washed 4 times with the wash solution, and 100 μl of a TMB substrate solution (Bio-Rad Laboratories, USA) was added to the well. Color was developed for 20 minutes and the reaction was stopped by adding 100 μl of 0.5 M sulfuric acid.
The absorbance at 450 nm was measured with a plate reader (Molecular Devices, USA) to obtain a total binding. To obtain a nonspecific binding, EDTA adjusted to 20 mM with the reaction solution was added instead of the test compound solution. A specific binding was calculated by subtracting the nonspecific binding from the total binding.

The target in another experiment is T1, αIIbβ3 integrin (Homo sapiens, UniProt P05106+P08514).
T1 construct: from tissue; host or cells: human platelets (Triton X-100 lysate)
T1 sequence (P08514 32-887 limits assumed): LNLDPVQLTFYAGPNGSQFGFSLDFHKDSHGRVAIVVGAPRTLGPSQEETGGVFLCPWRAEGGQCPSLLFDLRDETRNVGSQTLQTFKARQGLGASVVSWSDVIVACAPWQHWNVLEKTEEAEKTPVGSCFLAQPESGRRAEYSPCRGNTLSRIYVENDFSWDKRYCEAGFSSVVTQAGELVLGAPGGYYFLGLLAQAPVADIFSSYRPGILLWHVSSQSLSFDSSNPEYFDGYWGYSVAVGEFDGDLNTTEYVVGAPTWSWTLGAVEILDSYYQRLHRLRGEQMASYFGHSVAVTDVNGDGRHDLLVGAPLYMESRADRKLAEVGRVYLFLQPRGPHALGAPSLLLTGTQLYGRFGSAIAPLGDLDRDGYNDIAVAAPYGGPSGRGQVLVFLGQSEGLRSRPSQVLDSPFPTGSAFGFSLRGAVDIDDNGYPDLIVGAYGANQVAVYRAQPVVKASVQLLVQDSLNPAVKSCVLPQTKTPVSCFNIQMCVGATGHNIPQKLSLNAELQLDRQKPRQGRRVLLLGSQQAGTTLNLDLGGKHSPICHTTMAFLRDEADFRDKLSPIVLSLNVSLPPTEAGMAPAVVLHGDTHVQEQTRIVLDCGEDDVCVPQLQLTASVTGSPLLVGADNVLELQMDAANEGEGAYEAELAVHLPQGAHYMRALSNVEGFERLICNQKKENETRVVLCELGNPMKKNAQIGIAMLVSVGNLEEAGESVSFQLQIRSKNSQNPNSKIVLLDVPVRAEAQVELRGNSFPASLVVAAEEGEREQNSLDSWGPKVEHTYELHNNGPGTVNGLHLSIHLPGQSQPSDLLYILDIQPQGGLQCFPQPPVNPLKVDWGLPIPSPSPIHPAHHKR
T1 sequence (P08514 891-1039 partner limits assumed): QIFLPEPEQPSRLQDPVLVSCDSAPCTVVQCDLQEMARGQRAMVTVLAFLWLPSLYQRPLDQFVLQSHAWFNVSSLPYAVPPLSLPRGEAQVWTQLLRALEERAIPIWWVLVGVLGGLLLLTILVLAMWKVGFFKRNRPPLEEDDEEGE
T1 sequence (P05106 27-788): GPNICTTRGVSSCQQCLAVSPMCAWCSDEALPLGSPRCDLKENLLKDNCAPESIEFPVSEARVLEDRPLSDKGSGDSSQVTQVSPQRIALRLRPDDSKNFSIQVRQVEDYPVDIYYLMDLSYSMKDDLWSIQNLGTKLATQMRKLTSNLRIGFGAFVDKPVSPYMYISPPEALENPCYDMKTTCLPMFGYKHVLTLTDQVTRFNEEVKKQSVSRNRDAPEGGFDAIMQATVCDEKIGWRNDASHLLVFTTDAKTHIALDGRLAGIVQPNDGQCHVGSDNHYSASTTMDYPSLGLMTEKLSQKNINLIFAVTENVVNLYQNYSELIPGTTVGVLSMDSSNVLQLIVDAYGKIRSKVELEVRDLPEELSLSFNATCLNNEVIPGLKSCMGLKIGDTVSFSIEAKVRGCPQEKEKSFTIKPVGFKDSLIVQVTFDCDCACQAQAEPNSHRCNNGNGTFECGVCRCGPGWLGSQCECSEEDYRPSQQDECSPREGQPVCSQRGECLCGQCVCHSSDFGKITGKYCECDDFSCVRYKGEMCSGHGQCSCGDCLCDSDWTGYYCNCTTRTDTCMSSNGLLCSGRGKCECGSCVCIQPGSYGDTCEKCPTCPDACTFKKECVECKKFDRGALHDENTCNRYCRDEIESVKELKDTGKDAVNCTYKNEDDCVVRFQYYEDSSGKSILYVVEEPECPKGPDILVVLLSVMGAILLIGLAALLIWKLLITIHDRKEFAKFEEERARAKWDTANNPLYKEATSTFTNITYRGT
Description: Assay for the inhibition of αIIbβ3 integrin binding (fibrinogen as ligand, integrin captured from platelet lysate). The note with it: inhibition of specific binding of biotinylated fibrinogen to αIIbβ3 integrin from human platelet lysate. The procedure: Experiment 2: Assay for the Inhibition of αIIbβ3 Integrin Binding
This experiment was carried out based on the method described in Thromb. Haemostasis, 75, 339 (1996), Blood, 93, 2559 (1999), using fibrinogen as a ligand. According to the method described in the above literatures, assay for the inhibition of αIIbβ3 integrin binding can be achieved by capturing αIIbβ3 integrin from platelet lysate with the use of an activated antibody against αIIbβ3 integrin.
Human platelets were isolated in a conventional manner. At 25° C., the isolated platelets were adjusted to a concentration of 1.25×10^9/ml with TBS+[50 mM Tris-HCl (pH 7.4), 150 mM NaCl, 2 mM CaCl2], and then ⅛ volume of TBS^+ containing 2 mM leupepsin and 10 mM PMSF was added and stirred gently. Nest, 1/9 volume of TBS+ containing 10% Triton X-100 was added and stirred gently. After standing on ice for 30 minutes, a platelet lysate was prepared from the mixture by discarding the insoluble fraction with centrifugation (10,000 g, 15 minutes).
Anti-mouse IgG goat antibody (Jackson Immunoresearch Laboratories, Inc., USA) was adjusted to a concentration of 5 μg/ml with sodium carbonate buffer (pH 9.6) and added to plates at 50 μl/well. The plate was left at 4° C. overnight for immobilization of the antibody. All subsequent steps were done at 25° C., and the procedure for each well was described hereafter.
The well was washed once with TBS^+, and then 200 μl of TBS^+ containing 5% BSA was added to the well and left for one hour for blocking. The well was washed with a reaction solution (TBS^+ containing 0.1% BSA and 0.05% Triton X-100) 4 times, and then 50 μl of anti-human αIIbβ3 integrin activated monoclonal antibody (TAKARA SHUZO CO., LTD, Japan, PT25-2 strain) adjusted to 5 μg/ml with the reaction solution was added to the well. After one hour reaction, the well was washed 4 times with the reaction solution, and 50 μl of the platelet lysate diluted 1:2 with the reaction solution was added to the well. Following 2 hours reaction, the well was washed 4 times with the reaction solution, and 50 μl of the reaction solution was added to the well. Subsequently, 25 μl of a test compound solution adjusted to each concentration with the reaction solution was added, and then mixed with 25 μl of biotinylated fibrinogen (Calbiochem, Germany) adjusted to 2 μg/ml with the reaction solution. The mixture was reacted for one hour. After washing 4 times with the reaction solution, 100 μl of alkaline phosphatase-labeled streptoavidin (Gibco BRL, USA) diluted 1:500 with the reaction solution was added to the well. Following 30 minutes reaction, the well was washed 4 times with the wash solution. Next, 50 μl of the NaDPH solution (Invitrogen, former company name: Gibco BRL, USA) was added and reacted for 20 minutes, and then 50 μl of an amplification solution containing diaphorase and alcohol dehydrogenase (Invitrogen, former company name: Gibco BRL, USA) was added. Color was developed for 20 minutes and the reaction was stopped by adding 50 μl of 0.5 M sulfuric acid.
The absorbance at 495 nm was measured with a plate reader to obtain a total binding. To obtain a nonspecific binding, EDTA adjusted to 20 mM with the reaction solution was added instead of the test compound solution. A specific binding was calculated by subtracting the nonspecific binding from the total binding.

The target in a further experiment is GPIIb/IIIa (Homo sapiens, UniProt P05106+P08514). The note with it: reported in WO 99/38849; read-out: GPIIb/IIIa inhibitory activity IC50 value; cited from earlier work.
Chain of GPIIb/IIIa (P08514 32-887 limits assumed): as the sequence (P08514 32-887 limits assumed) above
Chain of GPIIb/IIIa (P08514 891-1039 partner limits assumed): as the sequence (P08514 891-1039 partner limits assumed) above
Chain of GPIIb/IIIa (P05106 27-788): as the sequence (P05106 27-788) above

Chain of αvβ3 integrin (P06756 31-889 limits assumed): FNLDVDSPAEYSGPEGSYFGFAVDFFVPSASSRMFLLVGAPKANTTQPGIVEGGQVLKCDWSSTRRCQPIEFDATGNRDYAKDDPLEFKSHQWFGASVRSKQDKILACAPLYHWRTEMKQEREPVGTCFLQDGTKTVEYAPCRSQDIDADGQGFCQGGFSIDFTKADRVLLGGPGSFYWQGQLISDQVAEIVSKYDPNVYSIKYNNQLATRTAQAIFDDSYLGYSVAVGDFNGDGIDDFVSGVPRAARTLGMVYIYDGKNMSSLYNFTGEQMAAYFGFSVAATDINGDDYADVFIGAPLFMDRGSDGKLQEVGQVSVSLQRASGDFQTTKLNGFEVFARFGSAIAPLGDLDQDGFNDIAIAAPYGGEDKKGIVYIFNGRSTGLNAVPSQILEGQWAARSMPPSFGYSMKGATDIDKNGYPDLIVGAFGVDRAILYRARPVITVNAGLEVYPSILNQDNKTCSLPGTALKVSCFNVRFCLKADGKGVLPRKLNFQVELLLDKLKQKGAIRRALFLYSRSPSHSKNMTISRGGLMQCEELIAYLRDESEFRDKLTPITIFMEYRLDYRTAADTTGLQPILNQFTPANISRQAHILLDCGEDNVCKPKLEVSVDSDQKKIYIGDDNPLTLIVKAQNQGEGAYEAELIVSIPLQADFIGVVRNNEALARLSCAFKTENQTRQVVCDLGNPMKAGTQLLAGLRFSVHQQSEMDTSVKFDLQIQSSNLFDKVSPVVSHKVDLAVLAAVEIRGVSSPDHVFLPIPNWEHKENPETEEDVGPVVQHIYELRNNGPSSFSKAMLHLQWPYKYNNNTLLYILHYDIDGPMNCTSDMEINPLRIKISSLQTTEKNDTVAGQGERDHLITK
Chain of αvβ3 integrin (P06756 891-1048 partner limits assumed): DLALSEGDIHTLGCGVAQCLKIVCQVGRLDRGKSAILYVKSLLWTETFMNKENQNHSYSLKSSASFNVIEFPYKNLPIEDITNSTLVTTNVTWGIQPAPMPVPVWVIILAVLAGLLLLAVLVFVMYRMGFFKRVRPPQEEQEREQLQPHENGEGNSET
Chain of αvβ3 integrin (P05106 27-788): as the sequence (P05106 27-788) above

In the case of `CCCCCCCCCCOC(=O)N[C@@H](CCC(=O)N1CCN(c2cccc(NC3=NCC(C)CN3)c2)CC1)C(=O)O` (stereo partly drawn) [Ex. 135], the values for the IC50 at αvβ3 integrin and at αIIbβ3 integrin were 0.74 nM and over 1000 nM, respectively.

For `CCCCCCOC(=O)N[C@@H](CCC(=O)N1CCN(c2cccc(NC3=NCCCN3)c2)CC1)C(=O)O` [Ex. 137, (2S)-2-hexyloxycarbonylamino-5-[4-[3-(1,4,5,6-tetrahydropyrimidin-2-yl)aminophenyl]piperazin-1-yl]-5-oxopentanoic acid], the IC50 was found to be 0.28 nM on αvβ3 integrin and 880 nM on αIIbβ3 integrin.

Regarding `Cc1cc(C)c(S(=O)(=O)N[C@@H](CCC(=O)N2CCN(c3cccc(NC4=NCCCN4)c3)CC2)C(=O)O)c(C)c1` [Ex. 140], the IC50 at αvβ3 integrin was 0.22 nM; at αIIbβ3 integrin, 30 nM.

Take `O=C(N[C@@H](CNC(=O)N1CCN(c2cccc(NC3=NCCCN3)c2)CC1)C(=O)O)OCc1ccccc1` [Ex. 145, (2S)-2-benzyloxycarbonylamino-3-[[4-[3-(1,4,5,6-tetrahydropyrimidin-2-yl)aminophenyl]piperazin-1-yl]carbonylamino]-propanoic acid]: the IC50 on αvβ3 integrin worked out at 0.041 nM; at αIIbβ3 integrin, 380 nM.

For `O=C(C[C@H](NC(=O)OCc1ccccc1)C(=O)O)NC1CCN(c2cccc(NC3=NCCCN3)c2)CC1` [Ex. 146, (2S)-2-benzyloxycarbonylamino-4-[[1-[3-(1,4,5,6-tetrahydropyrimidin-2-yl)aminophenyl]piperidin-4-yl]amino]-4-oxobutanoic acid], the IC50 turned out to be 1 nM at αvβ3 integrin and 4200 nM at αIIbβ3 integrin.

Take `O=C(N[C@@H](CCC(=O)N1CCC(c2cccc(NC3=NCCCN3)c2)CC1)C(=O)O)OCc1ccccc1` [Ex. 148, (2S)-2-benzyloxycarbonylamino-5-[4-[3-(1,4,5,6-tetrahydropyrimidin-2-yl)aminophenyl]piperidin-1-yl]-5-oxopentanoic acid]: the IC50 amounted to 0.17 nM on αvβ3 integrin and 420 nM at αIIbβ3 integrin.

With `Cc1cc(N2CCC(C(=O)NC[C@H](NC(=O)OCc3ccccc3)C(=O)O)CC2)nc(NC2=NCCCN2)n1` [Ex. 150, (2S)-2-benzyloxycarbonylamino-3-[[1-[2-(1,4,5,6-tetrahydropyrimidin-2-yl)amino-6-methylpyrimidin-4-yl]piperidin-4-yl]-carbonylamino]propanoic acid], the IC50 on αvβ3 integrin came to 0.081 nM; at αIIbβ3 integrin, 52 nM.

Regarding `COc1ccc(NC2=NCCCN2)cc1N1CCC(C(=O)NC[C@H](NC(=O)OCc2ccccc2)C(=O)O)CC1` [Ex. 152, (2S)-2-benzyloxycarbonylamino-3-[[1-[2-methoxy-5-(1,4,5,6-tetrahydropyrimidin-2-yl)aminophenyl]piperidin-4-yl]carbonylamino]propanoic acid], the values for the IC50 on αvβ3 integrin and on αIIbβ3 integrin were 0.055 nM and 13 nM, respectively.

Regarding `Cc1ccc(N2CCC(C(=O)NC[C@H](NC(=O)OCc3ccccc3)C(=O)O)CC2)cc1NC1=NCCCN1` [Ex. 153, (2S)-2-benzyloxycarbonylamino-3-[[1-[4-methyl-3-(1,4,5,6-tetrahydropyrimidin-2-yl)aminophenyl]piperidin-4-yl]-carbonylamino]propanoic acid], the figures for the IC50 on αvβ3 integrin and on αIIbβ3 integrin were 0.14 nM and 94 nM, respectively.

`COc1ccc(NC2=NCCCN2)cc1N1CCN(C(=O)CC[C@H](NC(=O)OCc2ccccc2)C(=O)O)CC1` [Ex. 154, (2S)-2-benzyloxycarbonylamino-5-[4-[2-methoxy-5-(1,4,5,6-tetrahydropyrimidin-2-yl)aminophenyl]piperazin-1-yl]-5-oxopentanoic acid]: the IC50 on αvβ3 integrin was determined as 0.096 nM; at αIIbβ3 integrin, 530 nM.

`O=C(N[C@@H](CNC(=O)C1CCN(c2cc(F)cc(NC3=NCCCN3)c2)CC1)C(=O)O)OCc1ccccc1` [Ex. 156, (2S)-2-benzyloxycarbonylamino-3-[[1-[5-fluoro-3-(1,4,5,6-tetrahydropyrimidin-2-yl)aminophenyl]piperidin-4-yl]carbonylamino]-propanoic acid]: the IC50 on αvβ3 integrin came to 0.055 nM; at αIIbβ3 integrin, 43 nM.

As to `O=C(N[C@@H](CCC(=O)N1CCN(c2cc(F)cc(NC3=NCCCN3)c2)CC1)C(=O)O)OCc1ccccc1` [Ex. 158, (2S)-2-benzyloxycarbonylamino-5-[4-[5-fluoro-3-(1,4,5,6-tetrahydropyrimidin-2-yl)aminophenyl]piperazin-1-yl]-5-oxopentanoic acid], the IC50 turned out to be 0.14 nM on αvβ3 integrin and 750 nM at αIIbβ3 integrin.

As to `O=C(N[C@@H](CNC(=O)C1CCN(c2cc(NC3=NCCCN3)ccn2)CC1)C(=O)O)OCc1ccccc1` [Ex. 159, (2S)-2-benzyloxycarbonylamino-3-[[1-[4-(1,4,5,6-tetrahydropyrimidin-2-yl)aminopyridin-2-yl]piperidin-4-yl]carbonylamino]-propanoic acid], the IC50 was determined as 0.06 nM on αvβ3 integrin and 86 nM on αIIbβ3 integrin.

Turning to `O=C(N[C@@H](CNC(=O)C1CCN(c2cc(NC3=NCC(F)CN3)ccn2)CC1)C(=O)O)OCc1ccccc1` (stereo partly drawn) [Ex. 160, (2S)-2-benzyloxycarbonylamino-3-[[1-[4-(5-fluoro-1,4,5,6-tetrahydropyrimidin-2-yl)aminopyridin-2-yl]piperidin-4-yl]carbonylamino]-propanoic acid], the values for the IC50 at αvβ3 integrin and at αIIbβ3 integrin were 0.046 nM and 67 nM, respectively.

`CC(C)COC(=O)N[C@@H](CNC(=O)C1CCN(c2cc(NC3=NCCCN3)ccn2)CC1)C(=O)O` [Ex. 161]: the IC50 is 0.1 nM at αvβ3 integrin and 77 nM on αIIbβ3 integrin.

On to `CN(C[C@H](NC(=O)OCc1ccccc1)C(=O)O)C(=O)C1CCN(c2cccc(NC3=NCCCN3)c2)CC1` [Ex. 162, (2S)-2-benzyloxycarbonylamino-3-[[1-[3-(1,4,5,6-tetrahydropyrimidin-2-yl)aminophenyl]piperidin-4-yl]-N-methylcarbonylamino]propanoic acid], for which the IC50 at αvβ3 integrin is 0.21 nM; at αIIbβ3 integrin, over 1000 nM.

On to `O=C(NC[C@H](NS(=O)(=O)c1ccccc1)C(=O)O)c1ccc(N2CCN(C3=NCCCN3)CC2)c(Cl)c1` [Example A-1, (2S)-2-benzenesulfonylamino-3-[3-chloro-4-[4-(1,4,5,6-tetrahydropyrimidin-2-yl)piperazin-1-yl]benzoylamino]propanoic acid], for which the IC50 on GPIIb/IIIa is at most 0.2 nM.
